The record followed here is US20120225062A1 (priority 2011, published 2012).

pEC50, pIC50: −log10 of the molar value.

For test [1], the system named is KMS11 (human myeloma cell line). Put plainly: Cell Proliferation Assay (CellTiter-Glo, 3 days). It is filed as cell-based. The settings on record: KMS-11, 72 h, KMS11-luc cells. An outline of the steps:
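EC50 from CellTiter-Glo luminescence after 3-day, 37° C compound treatment of KMS11 cells seeded at 2000 per well in IMDM plus 10% FBS.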
(In general: Cellular ATP, detected with luciferase, serves as a proxy for viable cell number.)

In another test the target is Pim 2 (Homo sapiens, UniProt Q9P1W9). Nature of the test: Pim 2 AlphaScreen assay (high ATP). In general terms: In Alpha technology, singlet oxygen from a donor bead excites a nearby acceptor bead.
Chain of Pim 2 (Q9P1W9 whole entry): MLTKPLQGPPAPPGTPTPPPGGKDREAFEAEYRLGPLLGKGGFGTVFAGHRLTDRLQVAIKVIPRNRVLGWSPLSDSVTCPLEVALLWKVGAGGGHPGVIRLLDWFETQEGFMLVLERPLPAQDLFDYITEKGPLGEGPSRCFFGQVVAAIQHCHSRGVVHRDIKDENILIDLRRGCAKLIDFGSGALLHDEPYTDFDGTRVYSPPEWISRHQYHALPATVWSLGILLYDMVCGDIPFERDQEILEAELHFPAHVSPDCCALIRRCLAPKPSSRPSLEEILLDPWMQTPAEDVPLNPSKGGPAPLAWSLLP
Another test addresses Pim 1 (Homo sapiens, UniProt P11309). Put plainly: Pim 1 AlphaScreen assay (high ATP).
A further test deals with Pim 3 (Homo sapiens, UniProt Q86V86). Nature of the test: Pim 3 AlphaScreen assay (high ATP).

Chain of Pim 1 (P11309 whole entry): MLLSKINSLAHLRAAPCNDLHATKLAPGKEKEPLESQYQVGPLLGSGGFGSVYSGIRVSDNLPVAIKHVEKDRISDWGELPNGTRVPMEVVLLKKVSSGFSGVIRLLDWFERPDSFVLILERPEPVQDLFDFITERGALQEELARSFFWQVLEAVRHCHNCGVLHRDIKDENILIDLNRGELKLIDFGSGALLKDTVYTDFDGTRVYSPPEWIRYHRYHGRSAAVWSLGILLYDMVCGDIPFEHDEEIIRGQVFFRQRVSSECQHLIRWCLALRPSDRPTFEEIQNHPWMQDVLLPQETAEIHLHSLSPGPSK
Procedure for Pim 2: The activity of Pim 1, Pim 2, & Pim 3 is measured using a homogeneous bead based system quantifying the amount of phosphorylated peptide substrate resulting from kinase-catalyzed phosphoryl transfer to a peptide substrate. Compounds to be tested are dissolved in 100% DMSO and directly distributed to a white 384-well plate at 0.25 μl per well. […] This is followed by the addition of 5 μl/well of Pim 1, Pim 2 or Pim 3 kinase in assay buffer (concentrations described below). Final assay concentrations (described below) are in 2.5% DMSO. The reactions are performed for ˜2 hours, then stopped by the addition of 10 μl of 0.75 μg/ml anti-phospho Ser/Thr antibody (Cell Signaling), 10 μg/ml Protein A AlphaScreen beads (Perkin Elmer), and 10 μg/ml streptavidin coated AlphaScreen beads in stop/detection buffer (50 mM EDTA, 95 mM Tris, pH=7.5, 0.01% Tween-20). The stopped reactions are incubated overnight in the dark. The phosphorylated peptide is detected via an oxygen anion initiated chemiluminescence/fluorescence cascade using the Envision plate reader (Perkin Elmer).

In the case of `C[C@@H]1C[C@H](N)C[C@H](c2ccncc2NC(=O)c2ccc(F)c(-c3c(F)cc(OC4COC4)cc3F)n2)C1` [Example 48, N-(4-((1R,3S,5S)-3-amino-5-methylcyclohexyl)pyridin-3-yl)-6-(2,6-difluoro-4-(oxetan-3-yloxy)phenyl)-5-fluoropicolinamide], the pEC50 (in general, −log10 of the EC50, conventionally taken in molar units) in test [1] is 7.08. Moreover, the pIC50 – broadly, the IC50 on a negative log10 scale, so that one unit is a factor of ten – against Pim 2 was 8.38; at Pim 1, 10.10; against Pim 3, 9.62.
The matching figures for `COC(C)(C)c1cc(F)c(-c2nc(C(=O)Nc3cnccc3[C@@H]3C[C@H](C)C[C@H](N)C3)ccc2F)c(F)c1` [Example 49, N-(4-((1R,3S,5S)-3-amino-5-methylcyclohexyl)pyridin-3-yl)-6-(2,6-difluoro-4-(2-methoxypropan-2-yl)phenyl)-5-fluoropicolinamide]: 7.28, 8.57, 10.52 and 8.73.
`C[C@@H]1C[C@H](N)C[C@H](c2ccncc2NC(=O)c2ccc(F)c(-c3c(F)cc(OCC(C)(C)O)cc3F)n2)C1` [Example 50, N-(4-((1R,3S,5S)-3-amino-5-methylcyclohexyl)pyridin-3-yl)-6-(2,6-difluoro-4-(2-hydroxy-2-methylpropoxy)phenyl)-5-fluoropicolinamide]: in test [1], the pEC50 was 7.89. Also, the negative logarithm of the IC50 (pIC50) against Pim 2 was 8.48; at Pim 1, 10.70; against Pim 3, 9.14.
With `C[C@H]1C[C@@H](c2ccncc2NC(=O)c2ccc(F)c(-c3c(F)cc(OCC(C)(C)O)cc3F)n2)C[C@@H](N)[C@@H]1O` [Example 51, N-(4-((1R,3R,4R,5S)-3-amino-4-hydroxy-5-methylcyclohexyl)pyridin-3-yl)-6-(2,6-difluoro-4-(2-hydroxy-2-methylpropoxy)phenyl)-5-fluoropicolinamide], the pEC50 in test [1] is 7.52. For the same compound, the results for the pIC50 against Pim 2, against Pim 1 and at Pim 3 were 8.36, 10.52 and 8.99, respectively.
The like results for `COC1(c2cc(F)c(-c3nc(C(=O)Nc4cnccc4[C@H]4C[C@@H](N)[C@H](O)[C@@H](C)C4)ccc3F)c(F)c2)COC1` [Example 52, N-(4-((1R,3R,4R,5S)-3-amino-4-hydroxy-5-methylcyclohexyl)pyridin-3-yl)-6-(2,6-difluoro-4-(3-methoxyoxetan-3-yl)phenyl)-5-fluoropicolinamide] were, in that order, 7.26, 8.32, 10.30 and 8.54.
The matching figures for `COC1(c2cc(F)c(-c3nc(C(=O)Nc4cnccc4[C@@H]4C[C@H](C)C[C@H](N)C4)ccc3F)c(F)c2)COC1` [Example 53, N-(4-((1R,3S,5S)-3-amino-5-methylcyclohexyl)pyridin-3-yl)-6-(2,6-difluoro-4-(3-methoxyoxetan-3-yl)phenyl)-5-fluoropicolinamide]: 7.49, 8.59, 10.30 and 8.39.
The like results for `C[C@H]1C[C@@H](c2ccncc2NC(=O)c2ccc(F)c(-c3c(F)cc(OC4CCOCC4)cc3F)n2)C[C@@H](N)[C@@H]1O` [Example 59] were, in that order, 7.55, 8.56, 10.70 and 9.35.
As to `C[C@@H]1C[C@H](N)C[C@H](c2ccncc2NC(=O)c2ccc(F)c(-c3c(F)cc(C4(O)CCC4)cc3F)n2)C1` [Example 61, N-(4-((1R,3S,5S)-3-amino-5-methylcyclohexyl)pyridin-3-yl)-6-(2,6-difluoro-4-(1-hydroxycyclobutyl)phenyl)-5-fluoropicolinamide], in test [1], the pEC50 is 7.33. Also, the negative logarithm of the IC50 (pIC50) on Pim 2 was 9.00; against Pim 1, 10.70; at Pim 3, 9.28.
The like results for `CC(C)Oc1cc(F)c(-c2nc(C(=O)Nc3cnccc3[C@H]3C[C@@H](N)[C@H](O)[C@@H](C)C3)ccc2F)c(F)c1` [Example 62, N-(4-((1R,3R,4R,5S)-3-amino-4-hydroxy-5-methylcyclohexyl)pyridin-3-yl)-6-(2,6-difluoro-4-isopropoxyphenyl)-5-fluoropicolinamide] were, in that order, 7.28, 8.99, 11.00 and 9.46.
In turn, `C[C@@H]1C[C@H](N)C[C@H](c2ccncc2NC(=O)c2ccc(F)c(-c3c(F)cc(OC4CCOCC4)cc3F)n2)C1` [Example 63, N-(4-((1R,3S,5S)-3-amino-5-methylcyclohexyl)pyridin-3-yl)-6-(2,6-difluoro-4-((tetrahydro-2H-pyran-4-yl)oxy)phenyl)-5-fluoropicolinamide] showed a pEC50 in test [1] of 7.12. In addition, the pIC50 is 8.69 against Pim 2, 11.00 against Pim 1 and 9.49 against Pim 3.
The matching figures for `C[C@@H]1C[C@H](N)C[C@H](c2ccncc2NC(=O)c2ccc(F)c(-c3c(F)cc(OCC4CC4)cc3F)n2)C1` [Example 64, N-(4-((1R,3S,5S)-3-amino-5-methylcyclohexyl)pyridin-3-yl)-6-(4-(cyclopropylmethoxy)-2,6-difluorophenyl)-5-fluoropicolinamide]: 7.43, 8.71, 11.00 and 9.29.
The matching figures for `C[C@@H]1C[C@H](N)C[C@H](c2ccncc2NC(=O)c2ccc(F)c(-c3c(F)cc(OC(F)F)cc3F)n2)C1` [Example 65, N-(4-((1R,3S,5S)-3-amino-5-methylcyclohexyl)pyridin-3-yl)-6-(4-(difluoromethoxy)-2,6-difluorophenyl)-5-fluoropicolinamide]: 7.08, 8.42, 11.00 and 9.00.
The like results for `COCCc1cc(F)c(-c2nc(C(=O)Nc3cnccc3[C@@H]3C[C@H](C)C[C@H](N)C3)ccc2F)c(F)c1` [Example 67, N-(4-((1R,3S,5S)-3-amino-5-methylcyclohexyl)pyridin-3-yl)-6-(2,6-difluoro-4-(2-methoxyethyl)phenyl)-5-fiuoropicolinamide] were, in that order, 7.64, 8.77, 10.70 and 9.03.
The compound `C[C@@H]1C[C@H](N)C[C@H](c2ccncc2NC(=O)c2ccc(F)c(-c3c(F)cc(C4COC4)cc3F)n2)C1` [Example 68, N-(4-((1R,3S,5S)-3-amino-5-methylcyclohexyl)pyridin-3-yl)-6-(2,6-difluoro-4-(oxetan-3-yl)phenyl)-5-fluoropicolinamide] gave a pEC50 in test [1] of 7.60. The pIC50 against Pim 2 was 8.80; on Pim 1, 11.00; against Pim 3, 8.95.
The matching figures for `CC(C)Oc1cc(F)c(-c2nc(C(=O)Nc3cnccc3[C@@H]3C[C@H](C)C[C@H](N)C3)ccc2F)c(F)c1` [Example 75, N-(4-((1R,3S,5S)-3-amino-5-methylcyclohexyl)pyridin-3-yl)-6-(2,6-difluoro-4-isopropoxyphenyl)-5-fluoropicolinamide]: 7.36, 8.81, 10.70 and 9.21.
For the compound `C[C@H]1CN(c2ccncc2NC(=O)c2ccc(F)c(-c3c(F)cc(C4(O)CCC4)cc3F)n2)C[C@@H](N)[C@@H]1O` [Example 76, N-(4-((3R,4R,5S)-3-amino-4-hydroxy-5-methylpiperidin-1-yl)pyridin-3-yl)-6-(2,6-difluoro-4-(1-hydroxycyclobutyl)phenyl)-5-fluoropicolinamide], in test [1], the pEC50 was 8.05. The results for the pIC50 against Pim 2, against Pim 1 and against Pim 3 were 9.15, 11.00 and 9.66, respectively.
The matching figures for `C[C@@H]1C[C@H](N)C[C@H](c2ccncc2NC(=O)c2ccc(F)c(-c3c(F)cc(O[C@@H]4CCCOC4)cc3F)n2)C1` [Example 77, N-(4-((1R,3S,5S)-3-amino-5-methylcyclohexyl)pyridin-3-yl)-6-(2,6-difluoro-4-((R)-tetrahydro-2H-pyran-3-yloxy)phenyl)-5-fluoropicolinamide]: 7.32, 8.74, 10.70 and 8.95.
In test [1], `C[C@H]1C[C@@H](c2ccncc2NC(=O)c2ccc(F)c(-c3c(F)cc(O[C@@H]4CCCOC4)cc3F)n2)C[C@@H](N)[C@@H]1O` [Example 78, N-(4-((1R,3R,4R,5S)-3-amino-4-hydroxy-5-methylcyclohexyl)pyridin-3-yl)-6-(2,6-difluoro-4-((R)-tetrahydro-2H-pyran-3-yloxy)phenyl)-5-fluoropicolinamide] had a negative logarithm of the EC50 (pEC50) of 7.66. Moreover, the pIC50 against Pim 2 was 8.91; at Pim 1 it was 10.70; at Pim 3 it was 9.25.
The like results for `C[C@@H]1C[C@H](N)C[C@H](c2ccncc2NC(=O)c2ccc(F)c(-c3c(F)cc(O[C@H]4CCCOC4)cc3F)n2)C1` [Example 79, N-(4-((1R,3S,5S)-3-amino-5-methylcyclohexyl)pyridin-3-yl)-6-(2,6-difluoro-4-((S)-tetrahydro-2H-pyran-3-yloxy)phenyl)-5-fluoropicolinamide] were, in that order, 7.92, 8.97, 11.00 and 9.62.
The like results for `C[C@H]1C[C@@H](c2ccncc2NC(=O)c2ccc(F)c(-c3c(F)cc(O[C@H]4CCCOC4)cc3F)n2)C[C@@H](N)[C@@H]1O` [Example 80, N-(4-((1R,3R,4R,5S)-3-amino-4-hydroxy-5-methylcyclohexyl)pyridin-3-yl)-6-(2,6-difluoro-4-((S)-tetrahydro-2H-pyran-3-yloxy)phenyl)-5-fluoropicolinamide] were, in that order, 7.62, 8.67, 10.70 and 9.24.
